This is an account of results in PMC2914821 (Biochemistry, 2010).

Like-named read-outs stand apart in the source and are kept apart here.

Series [1] has as its target sGC. The following applies: cited from earlier work; for Kd / kOFF: sGC.
Series [2] has as its system ferrous Ns H-NOX. Briefly: CO and NO binding kinetics to ferrous Ns H-NOX. Set-up: species or system Nostoc sp. The settings on record: for kOFF: 6c-CO complex / 1st 6c-NO complex, 20 – 25 °C.
Series [3] addresses ferric sGC. The following applies: cited from earlier work.
Series [4] has as its system ferric Ns H-NOX.
The conditions of series [5]: ferrous, 37 °C; cited from earlier work.

Take `[C-]#[O+]` [CO, carbon monoxide]: in series [1] (4 °C), the Kd is 260 µM and the kOFF was 10.7 s⁻¹. Further, the “rate of reaction with CO, Ns H-NOX relative to sGC” value in series [2] is recorded as 100 fold. Also, the “second-order rate constant of CO binding” value in series [2] (5 µM ferrous Ns H-NOX, [CO] 25 to 166 µM, 24 °C, two separately purified samples) was 2 – 3 × 10^6 M^−1s^−1. Moreover, in series [2] (3.6 s^-1/3.0 µM^−1s^−1), the “Kd for CO binding, ratio koff/kon” value is listed as 1.2 µM. Besides, in series [2] (24 °C), the “CO association rate constant (free linear fit)” value was found to be 2.9e+06 M⁻¹ s⁻¹ and the “CO dissociation rate constant (koff) from y-axis intercept of kobs versus [CO]” value was found to be 23 s⁻¹. In series [2] (Ns H-NOX), this molecule displayed a kOFF of 3.6 s⁻¹.

For `[N-]=[N+]=[N-]` [N3^−, azide], the Kd in series [3] was 26000 µM. Besides, the “observed rate constant of azide binding” value in series [4] is recorded as ~ 0.015 s^−1.

As for `O=O` [O2, oxygen], in series [1], the “O2 binding (comment)” value was “No O2 binding at 1 atm, 10 °C”.

As for nitric oxide [NO], the kOFF in series [1] (5c (off), 10 °C) is 0.0006 s⁻¹. Further, the Kd in series [1] (10 °C, calculated as kOFF/kON) is 4.2e-06 µM. The “fraction of 5c NO-heme in final NO-heme complex” value in series [2] (EPR, large excess (1 atm) of NO gas, wild type Ns H-NOX) was ~ 40%. For the same molecule, in series [2] (Ns H-NOX), the “overall equilibrium affinity for NO relative to CO” value is 4 orders of magnitude and the kOFF was 0.05 s⁻¹. In addition, in series [2] (excess NO, independent of [NO]), the “first order rate constant of 6c-NO to 5c-NO conversion, first phase” value is on record as ~ 7 s^−1 and the “first order rate constant of 6c-NO to 5c-NO conversion, second phase” value stood at 0.3 s⁻¹. Moreover, in series [2] (flow-flash, 436 and 418 nm, 24 °C), the “NO association rate constant for first 6c-NO complex” value was 200 – 400 µM^−1s^−1 and ≈ 300 µM^−1s^−1. Besides, in series [2] (initial 6c-NO complex mixed with 0.5 mM CO and 25 mM dithionite), the “NO dissociation first order rate constant, minor slow phase” value came to 0.007 s⁻¹. For the same molecule, the Kd in series [2] (read-out: apparent Kd for first NO binding step) was approximately 0.00017 µM.

B1: β2(1–217): truncated sGC β2 heme domain (protein, UniProt O75343 1-217, looked up, fragment)
chain: MSGYDRMLRTLGGNLMEFIENLDALHSYLALSYQEMNAPSFRVERGADGKMFLHYYSDRSGLCHIVPGIIEAVAKDFFDIDVIMDILDMNEEVERTGKKEHVVFLIVQKAHRKMRKTKPKRLQDSQGMERDQEALQAAFLKMKEKYLNVSACPVKKSHWDVVRSIVMFGKGHLMNTFEPIYPERLWIEEKTFCNAFPFHIVFDESLQVKQARVNIQK
modifications: heme domain
Take B1: the rate of autooxidation in series [5] was 0.18 h⁻¹.

B2: β1(1–194): truncated sGC β1 heme domain corresponding to the H-NOX domain (protein, UniProt Q02153 1-194, looked up, fragment)
chain: MYGFVNHALELLVIRNYGPEVWEDIKKEAQLDEEGQFLVRIIYDDSKTYDLVAAASKVLNLNAGEILQMFGKMFFVFCQESGYDTILRVLGSNVREFLQNLDALHDHLATIYPGMRAPSFRCTDAEKGKGLILHYYSEREGLQDIVIGIIKTVAQQIHGTEIDMKVIQQRNEECDHTQFLIEEKESKEEDFYED
modifications: H-NOX domain
As for B2, the rate of autooxidation in series [5] is 4.3 h⁻¹.
